Test results published in ChEMBL document CHEMBL1926603 (Bioorg Med Chem Lett, 2011).

Biological target: T1, Tyrosinase (Agaricus bisporus, UniProt O42713)
T1 sequence (O42713 whole entry): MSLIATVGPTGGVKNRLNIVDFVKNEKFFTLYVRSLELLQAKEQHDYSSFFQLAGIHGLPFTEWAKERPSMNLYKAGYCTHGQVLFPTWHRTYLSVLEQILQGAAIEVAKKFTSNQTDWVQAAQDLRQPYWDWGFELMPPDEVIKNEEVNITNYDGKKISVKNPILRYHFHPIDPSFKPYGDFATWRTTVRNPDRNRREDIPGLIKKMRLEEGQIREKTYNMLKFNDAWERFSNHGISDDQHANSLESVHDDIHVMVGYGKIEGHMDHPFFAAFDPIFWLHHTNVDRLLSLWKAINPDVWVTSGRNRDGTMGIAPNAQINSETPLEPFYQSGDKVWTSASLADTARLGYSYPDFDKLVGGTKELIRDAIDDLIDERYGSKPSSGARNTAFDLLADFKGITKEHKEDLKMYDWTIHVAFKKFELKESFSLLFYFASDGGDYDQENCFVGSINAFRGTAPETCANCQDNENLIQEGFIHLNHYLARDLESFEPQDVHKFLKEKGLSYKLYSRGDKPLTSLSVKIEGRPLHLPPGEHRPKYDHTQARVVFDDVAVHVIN
Experiment: Inhibition of mushroom tyrosinase activity using L-tyrosin as substrate after 20 mins
Details: not given

Compared with O=C(OCc1cc(=O)c(O)co1)c1ccc(O)cc1, O=C(OCc1cc(=O)c(O)co1)c1ccc2cc(O)ccc2c1 is 1.8-fold higher in IC50: 5.51 µM for the first, 9.65 µM for the second. The first is the more potent here.

Going from Cc1c(C)c2c(c(C)c1O)CCC(C)(C(=O)OCc1cc(=O)c(O)co1)O2 (racemic) to COc1coc(COC(=O)C2(C)CCc3c(C)c(O)c(C)c(C)c3O2)cc1=O (stereo unspecified), the IC50 rises from 5.36 µM to > 200 µM. The first is the more potent here.

In the case of Cc1c(C)c2c(c(C)c1O)CCC(C)(C(=O)O)O2 (stereo unspecified) [TROLOX], the IC50 is reported as > 200 µM.

Tested on: not listed separately
Experiment: Ratio of kojic acid IC50 to compound IC50 for depigmentation activity in mouse Melan-a cells assessed as inhibition of melanin formation after 4 days
Type: functional
Details: not given

With Cc1c(C)c2c(c(C)c1O)CCC(C)(C(=O)OCc1cc(=O)c(O)co1)O2 (racemic) the “Ratio IC50” value was 90.

Tested on: Radical scavenging activity
Experiment: not given
Details: not given

O=C(OCc1cc(=O)c(O)co1)c1ccc(O)cc1 and O=C(OCc1cc(=O)c(O)co1)c1ccc2cc(O)ccc2c1 cannot be ordered by IC50: > 200 µM for the first, > 200 µM for the second.

Compared with Cc1c(C)c2c(c(C)c1O)CCC(C)(C(=O)OCc1cc(=O)c(O)co1)O2 (racemic), COc1coc(COC(=O)C2(C)CCc3c(C)c(O)c(C)c(C)c3O2)cc1=O (stereo unspecified) is 1.7-fold higher in IC50: 11.6 µM for the first, 19.8 µM for the second.

Cc1c(C)c2c(c(C)c1O)CCC(C)(C(=O)O)O2 (stereo unspecified) [TROLOX] gave an IC50 of 10.1 µM.

Tested on: not listed separately
Experiment: cells
Details: Mus musculus, Melan-a, 96 h
Description: Depigmentation activity in mouse Melan-a cells assessed as inhibition of melanin formation after 4 days

O=C(OCc1cc(=O)c(O)co1)c1ccc(O)cc1 and O=C(OCc1cc(=O)c(O)co1)c1ccc2cc(O)ccc2c1 cannot be ordered by IC50: > 200 µM for the first, > 200 µM for the second.

Going from Cc1c(C)c2c(c(C)c1O)CCC(C)(C(=O)OCc1cc(=O)c(O)co1)O2 (racemic) to COc1coc(COC(=O)C2(C)CCc3c(C)c(O)c(C)c(C)c3O2)cc1=O (stereo unspecified), the IC50 rises from 17.7 µM to > 200 µM. The first is the more potent here.

With Cc1c(C)c2c(c(C)c1O)CCC(C)(C(=O)O)O2 (stereo unspecified) [TROLOX] the IC50 was > 300 µM.

Tested on: not listed separately
Experiment: cells
Details: Mus musculus, Melan-a
Description: Cytotoxicity against mouse Melan-a cells by modified crystal voilet assay

O=C(OCc1cc(=O)c(O)co1)c1ccc(O)cc1 and O=C(OCc1cc(=O)c(O)co1)c1ccc2cc(O)ccc2c1 cannot be ordered by IC50: > 200 µM for the first, > 200 µM for the second.

Compared with Cc1c(C)c2c(c(C)c1O)CCC(C)(C(=O)OCc1cc(=O)c(O)co1)O2 (racemic), COc1coc(COC(=O)C2(C)CCc3c(C)c(O)c(C)c(C)c3O2)cc1=O (stereo unspecified) is higher in IC50: 56.5 µM for the first, > 200 µM for the second. The first is the more potent here.

In the case of Cc1c(C)c2c(c(C)c1O)CCC(C)(C(=O)O)O2 (stereo unspecified) [TROLOX], the IC50 is reported as 300 µM.
